# How the values were obtained:
# Assay type in all cases: cell-based, human
# 201B7 cells [1] = test: Confirmation of maintenance of undifferentiation potency by alkaline phosphatase (ALP) staining and phase contrast morphology
# Description: It was confirmed by alkaline phosphatase (ALP) staining that the 201B7 cells cultured in the presence of activin A maintained undifferentiation potency. Meanwhile, the photographs on the left side of FIG. 3 are images observed with a phase contrast microscope, and the photographs on the right side are images observed after ALP staining.
# 201B7 cells [2] = test: Effect of activin A on differentiation of embryoid bodies formed by hanging drop culture (microscopic observation); conditions: activin A 100 ng/mL instead of bFGF; at least 14 days after the initiation of culture; Matrigel-coated plate
# Experimental: Cell culture was carried out using cells of strain HPS0001 201B7, which are human induced pluripotent stem cells (iPS cells), obtained from RIKEN BioResource Center, Cell Bank. The cell culture was carried out in a humidified chamber at 37° C. under the conditions of 5% CO2 using, as a medium, Dulbecco […] (DMEM)-F12 medium (manufactured by Sigma-Aldrich Japan K.K.) supplemented with a knockout serum replacement additive (KSR; manufactured by Life Technologies Japan, Ltd. (final concentration 20%), a 1/100 dilution of 100-times concentrated […] (manufactured by Life Technologies Japan, Ltd.), 2 mM L-glutamine (manufactured by Life Technologies Japan, Ltd.), 0.1 mM 2-mercaptoethanol (manufactured by Sigma-Aldrich Japan K.K.), and 5 ng/mL of basic fibroblast growth factor (bFGF; manufactured by Wako Pure Chemical industries, Ltd.). At this time, 201B7 cell line was proliferated by co-culturing 201B7 cell line on cells of strain SNL76/7, which are mouse-derived fetal fibroblasts proliferated on a culture plate (manufactured by AGC Techno Glass Corp.) treated with mitomycin C (manufactured by Sigma-Aldrich Japan K.K.) and coated with gelatin (manufactured by Sigma-Aldrich Japan K.K.), and the 201B7 cell line was maintained. Also, at the time of subculturing, cells were collected using a CTK solution. […]
# 201B7 cells [3] = test: Alkaline phosphatase staining of subcultured cells at the 12th passage; conditions: activin A 10 ng/mL, CHIR99021 2 μM, LIF 1000 U/mL
# Description: Among the cells that had been subcultured as described above, those subcultured in the presence of activin A alone (A), a combination of activin A+CHIR99021 (AC), and a combination of activin A+CHIR99021+LIF (ACL) were subjected to alkaline phosphatase staining as described above, at the 12th passage. The results are shown in the photographs on the left side of FIG. 5.
# 201B7 cells [4] = test: Evaluation of cell proliferative capacity by MTS assay; conditions: FIG. 2
# Experimental: The proliferative capacity of 201B7 cells that had been cultured in the presence of activin A was evaluated by an MTS assay.
# 201B7 cells [5] = test: Immunostaining of subcultured cells for pluripotency markers (Oct3/4, Nanog, SSEA4, TRA-1-60); conditions: cells subcultured from the 11th passage
# Experimental: Each of the cells at the 11th passage was seeded on a Matrigel-coated 4-well slide glass, and subculture was continued. When the cells reached 70% confluency, the medium was removed, and the cells were washed once with PBS. The cells were immobilized with 4% para-formaldehyde, and then were washed three times with PBS. Meanwhile, in the case of staining for Oct3/4 and Nanog, a permeabilization solution (0.2% Triton X-100 (PBS solution)) was added to the cells, and the cells were left to stand for 15 minutes at room temperature. Subsequently, the cells were washed three times for 5 minutes with a washing buffer (2% FBS (PBS solution)).
# Thereafter, primary antibodies diluted with the washing buffer were added to the cells, and the cells were left to stand overnight at 4° C. Meanwhile, the types of the various primary antibodies and the dilution ratios are as follows.
# Mouse anti-Oct3/4 antibody (BD Transduction Laboratories): 200 times
# Rabbit anti-Nanog antibody (manufactured by ReproCELL Inc.): 1000 times
# Mouse anti-SSEA4 antibody (manufactured by Chemicon Corporation): 200 times
# Mouse anti-TRA-1-60 antibody (manufactured by Chemicon Corporation): 200 times
# Subsequently, the cells were […] three times for 5 minutes with the washing buffer, and then secondary antibodies diluted with the washing buffer were added. The cells were left to stand for one hour at 4° C. […]
substance,measurement,setting,value
"activin A: homodimer of the β chain of inhibin A (βAβA), TGF-β superfamily protein; manufactured by R & D Systems, Inc.",concentration of added activin A at which iPS cells can maintain undifferentiation potency,201B7 cells [1]; ALP staining and morphology,0.01 to 0.1 µg/mL
same,ALP staining,201B7 cells [1]; activin A 1 ng/mL,positive
same,cell morphology,201B7 cells [1]; activin A 1 ng/mL,slightly similar to fibroblasts
same,ALP staining,201B7 cells [1]; activin A 10 ng/mL,positive
same,cell morphology,201B7 cells [1]; activin A 10 ng/mL,maintained an undifferentiated condition
same,ALP staining,201B7 cells [1]; activin A 30 ng/mL,positive
same,cell morphology,201B7 cells [1]; activin A 30 ng/mL,maintained an undifferentiated condition
same,ALP staining,201B7 cells [1]; activin A 100 ng/mL,positive
same,cell morphology,201B7 cells [1]; activin A 100 ng/mL,maintained an undifferentiated condition
same,morphological condition of embryoid bodies,201B7 cells [2],maintained a morphologically undifferentiated condition
same,ALP staining,201B7 cells [3],positive
same,concentration of added activin at which 201B7 cells had proliferative capacity,201B7 cells [4],3 to 30 ng/mL
same,staining of nuclei by anti-Oct3/4 antibody,201B7 cells [5],positively stained

# Source: patent publication US20120164729A1, “COMPOSITION FOR CULTURING PLURIPOTENT STEM CELLS AND USE THEREOF” (NATIONAL UNIVERSITY CORPORATION CHIBA UNIVERSITY, priority 2010, published 2012)
